ChEMBL document CHEMBL4396897, “Potent 5-Cyano-6-phenyl-pyrimidin-Based Derivatives Targeting DCN1-UBE2M Interaction” (J Med Chem, 2019)

What was measured:
DCN1-like protein 1 [1] = biological target: T1, DCN1-like protein 1 (Homo sapiens, UniProt Q96GG9); test: Binding affinity to N-terminal His6-tagged recombinant human DCN1 expressed in Escherichia coli BL21-AI assessed as reduction in DCN1-FAM-labelled N-terminal acetylated UBE2M (1 to 12 residues) protein-protein interaction after 30 mins by fluorescence polarization competitive binding assay
T1 sequence (Q96GG9 whole entry, the tested form may be a part): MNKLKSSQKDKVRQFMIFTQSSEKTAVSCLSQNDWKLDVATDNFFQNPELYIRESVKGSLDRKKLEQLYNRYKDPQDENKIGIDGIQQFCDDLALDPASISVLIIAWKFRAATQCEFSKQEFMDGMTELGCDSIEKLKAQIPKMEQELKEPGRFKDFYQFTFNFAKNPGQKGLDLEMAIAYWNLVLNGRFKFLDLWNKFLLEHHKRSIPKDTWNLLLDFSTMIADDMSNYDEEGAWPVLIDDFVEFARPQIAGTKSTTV

DCN1-like protein 1 [2] = biological target: T1, DCN1-like protein 1; test: Binding affinity to N-terminal GST tagged recombinant human DCN1 (58 to 259 residues) expressed in Escherichia coli BL21(DE3) assessed as reduction in DCN1-FAM-labelled N-terminal acetylated UBE2M (1 to 21 residues) protein-protein interaction after 30 mins by HTRF assay

Row | SMILES | IC50 (DCN1-like protein 1 [1]) [nM] | IC50 (DCN1-like protein 1 [2]) [nM]
1 | C#CCSc1nc(Sc2nnnn2C)c(C#N)c(-c2cccc(Cl)c2)n1 | 644 | 291
2 | N#Cc1c(Sc2nccs2)nc(SCc2cn(Cc3ccccc3)nn2)nc1-c1ccc(Cl)cc1 | > 10000 | > 10000
3 | C#CCSc1nc(Sc2nccs2)c(C#N)c(-c2cc(OC)c(OC)c(OC)c2)n1 | 141 | 77
4 | C#CCSc1nc(Sc2nnnn2C)c(C#N)c(-c2cccs2)n1 | > 20000 | > 10000
5 | C#CCSc1nc(Nc2nnnn2C)c(C#N)c(-c2cc(OC)c(OC)c(OC)c2)n1 | > 10000 | > 10000
6 | C#CCSc1nc(Sc2nccs2)c(C#N)c(-c2ccncc2)n1 | 1480 | 1060
7 | C#CCSc1nc(Nc2cccc(C(F)(F)F)c2)c(C#N)c(-c2cc(OC)c(OC)c(OC)c2)n1 | > 10000 | > 10000
8 | C#CCSc1nc(Sc2nnnn2C)c(C#N)c(-c2c[nH]c3ccccc23)n1 | > 20000 | > 10000
9 | C#CCSc1nc(Sc2nnc(N)s2)c(C#N)c(-c2cc(OC)c(OC)c(OC)c2)n1 | 821 | 107
10 | C#CCSc1nc(Nc2ccc(OC)cc2)c(C#N)c(-c2cc(OC)c(OC)c(OC)c2)n1 | > 10000 | > 10000
11 | C#CCSc1nc(Sc2nnnn2CCN(C)C)c(C#N)c(-c2cc(OC)c(OC)c(OC)c2)n1 | 591 | 199
12 | C=CCSc1nc(Sc2nccs2)c(C#N)c(-c2ccc(Cl)cc2)n1 | > 10000 | > 10000
13 | C#CCSc1nc(Sc2nnnn2C)c(C#N)c(-c2ccc3oc(=O)ccc3c2)n1 | 1250 | 820
14 | C#CCSc1nc(-c2cc(OC)c(OC)c(OC)c2)c(C#N)c(N2CCNCC2)n1 | > 10000 | > 5000
15 | C#CCSc1nc(Sc2nnnn2CCN(C)C)c(C#N)c(-c2ccc3oc(=O)ccc3c2)n1 | 666 | 815
16 | C#CCSc1nc(Sc2ccc(N)s2)c(C#N)c(-c2cc(OC)c(OC)c(OC)c2)n1 | 196 | 66
17 | C#CCSc1nc(Sc2nnnn2C)c(C#N)c(-c2ccc(Cl)cc2)n1 | 78.5 | 102
18 | C#CCSc1nc(Sc2nnnn2C)c(C#N)c(-c2ccccc2)n1 | > 20000 | > 20000
19 | C#CCSc1nc(-c2cc(OC)c(OC)c(OC)c2)c(C#N)c(N2CCCCC2)n1 | > 10000 | > 5000
20 | C#CCSc1nc(Sc2nccs2)c(C#N)c(-c2ccc3oc(=O)ccc3c2)n1 | 789 | 202
21 | C#CCSc1nc(Sc2nccs2)c(C#N)c(-c2cccc(Cl)c2)n1 | 362 | 140
22 | C#CCSc1nc(Sc2nnnn2C)c(C#N)c(-c2ccc[nH]2)n1 | > 20000 | > 10000

The next lines start with the values.

Row | IC50 (DCN1-like protein 1 [1]) [nM] | IC50 (DCN1-like protein 1 [2]) [nM] | SMILES
23 | 153 | 134 | C#CCSc1nc(Sc2nnc(C)s2)c(C#N)c(-c2cc(OC)c(OC)c(OC)c2)n1
24 | > 10000 | > 5000 | C#CCSc1nc(-c2cc(OC)c(OC)c(OC)c2)c(C#N)c(N2CCSCC2)n1
25 | 943 | 339 | C#CCSc1nc(Sc2nnnn2C)c(C#N)c(-c2ccc(Cl)c(Cl)c2)n1
26 | 3150 | 1020 | C#CCSc1nc(Sc2nnnn2C)c(C#N)c(-c2cccc(OC)c2)n1
27 | 63 | 112 | C#CCSc1nc(Sc2nccs2)c(C#N)c(-c2ccc(Cl)c(Cl)c2)n1
28 | > 10000 | > 2500 | C#CCSc1nc(Sc2nccn2C)c(C#N)c(-c2cc(OC)c(OC)c(OC)c2)n1
29 | 109 | 120 | C#CCSc1nc(Sc2nnnn2CCN(C)C)c(C#N)c(-c2ccc(C)cc2)n1
30 | > 10000 | > 10000 | CCCSc1nc(Sc2nccs2)c(C#N)c(-c2ccc(Cl)cc2)n1
31 | 391 | 172 | C#CCSc1nc(Sc2nnnn2CCN(C)C)c(C#N)c(-c2ccc(Cl)c(Cl)c2)n1
32 | 1090 | 369 | C#CCSc1nc(Sc2nnnn2C)c(C#N)c(-c2ccc(C(C)C)cc2)n1
33 | > 10000 | > 10000 | C#CCSc1nc(-c2cc(OC)c(OC)c(OC)c2)c(C#N)c(N2CCOCC2)n1
